Like-named read-outs stand apart in the source and are kept apart here.
Key:
[1] = read-out: Kd,Zn(II); cited from earlier work
NDM-15 Δ35 BL21 cells = NDM-15 Δ35 BL21 cells (Klebsiella pneumoniae, UniProt C7C422, A233V/M154L); assay: Confocal fluorescence imaging of 4D-treated live E. coli expressing Δ35 NDM-15; assay type: cell-based; conditions: DPA up to 200 μM
[2] = target: Δ35 NDM-1 expressing BL21 (DE3) E. coli (Klebsiella pneumoniae, UniProt C7C422); assay: cell-based
NDM-1 [3] = target: T1, NDM-1 (Klebsiella pneumoniae, UniProt C7C422); assay: Challenge of fluorescent 4D:NDM-1 complex with inhibitors and chelators; assay type: binding
NDM-1 [4] = target: T1, NDM-1; conditions: read-out: IC50 for purified NDM-1; cited from earlier work
NDM-1 [5] = target: T1, NDM-1; assay: NDM-1 inhibition with chromacef substrate; assay type: biochemical
NDM-1 [6] = conditions: substrate of NDM-1; cited from earlier work

O=C([O-])CN(CCN(CC(=O)O)CC(=O)O)CC(=O)[O-].[Ca+2] [CaEDTA, calcium EDTA]
Kd [1]: 0.001 µM

O=C(O)c1cccc(C(=O)O)n1 [DPA, dipicolinic acid]
effect on fluorescence (NDM-15 Δ35 BL21 cells): no effect on fluorescence | IC50 [2]: ~200 µM | fluorescence turn-on of 4D:NDM-1 after treatment (NDM-1 [3]; DPA 150 μM, 50 μM ZnSO4, from 17-fold maximum): 13 fold | IC50 (NDM-1 [4]): 0.5 µM | IC50 (NDM-1 [5]): 154 µM

c1ccc(CN(CCN(Cc2ccccn2)Cc2ccccn2)Cc2ccccn2)nc1 [TPEN, N,N,N′,N′-tetrakis(2-pyridinyl-methyl)-1,2-ethanediamine]
fluorescence after pre-incubation of NDM-1 with TPEN (NDM-1 [3]; 10 μM NDM-1 and 10 μM 4D, recovered upon excess ZnSO4): complete reduction of fluorescence | fluorescence turn-on after pre-incubation of NDM-1 with TPEN (NDM-1 [3]; 30 μM NDM-1 pre-incubated with TPEN, then 10 μM 4D): ~ 4 fold | fluorescence turn-on of 4D:NDM-1 after treatment (NDM-1 [3]; TPEN 50 μM, 10 μM ZnSO4, from 12-fold): 9.2 fold

CC1=C(C(=O)O)N2C(=O)[C@@H](NC(=O)[C@H](N)c3ccccc3)[C@H]2SC1 [cephalexin]
Km (NDM-1 [6]): 5.6 µM

chromacef
Km (NDM-1 [6]): 0.66 ± 0.2 µM

From article PMC8230704 (Journal of the American Chemical Society, 2021)
